Laboratory results as given in patent US10717766B2, “Antimicrobial peptides and uses thereof” (TECHNION RESEARCH & DEVELOPMENT FOUNDATION LIMITED, priority 2016, dated 2020).
Where two headings read alike, the source gives them in different places.

Key:
[1] = system: Micrococcus luteus; experiment: diameter of the growth inhibition of Micrococcus luteus cells; assay type: cell-based; conditions: for growth inhibition of Micrococcus luteus: FIG. 2A; for diameter of the growth inhibition of Micrococcus luteus: various concentrations
Excerpt: The anti-bacterial activity of LFKFFK peptide (SEQ ID NO: 1), KLFKFFK peptide (SEQ ID NO: 3) and control peptides with a hydrophobic/cationic amino-acid composition, IIKVIK (SEQ ID NO: 10) and IIKIIK (SEQ ID NO: 11), was examined by determining the diameter of the growth inhibition of Micrococcus luteus cells.

[2] = system: Staphylococcus epidermidis ATCC 12228; experiment: antibacterial activity (MIC) of fragments against Staphylococcus epidermidis ATCC 12228; assay type: cell-based; conditions: FIG. 5
Protocol: (§1) Extended fragments of the LFKFFK (SEQ ID NO: 1) sequence were derived from Staphylococcus aureus (PSMα3 derivatives) in order to determine the minimum peptide length critical for the antibacterial activity. […] Therefore, the antibacterial activity of its fragments comprising SEQ ID NO: 1, as listed in Table 1, were examined on the growth of Staphylococcus epidermidis ATCC 12228 cells, Staphylococcus hominis, and Lactobacillus casei after 24 hours from treatment with 0.5 mM peptide at 37° C. under agitation compared to control (bacterial growth w/o peptide). Lactobacillus casei are probiotic bacteria. Therefore, the peptides listed in Table 1 were also tested against bacteria of the human flora.

[3] = system: Staphylococcus hominis; experiment: growth of Staphylococcus hominis after treatment with 0.5 mM peptide; assay type: cell-based; conditions: 24 hours, 37° C. under agitation, FIG. 6
Protocol: as §1

[4] = system: bacteria; conditions: native full-length 22-residue peptide, cited from earlier work
[5] = system: Staphylococcus hominis; experiment: minimal inhibition concentration (MIC) against Staphylococcus hominis; assay type: cell-based; conditions: O.D600 nm after 24 hours incubation at 37° C. with agitation, FIG. 4
Protocol: N-terminal acetylation of peptides is known to enhance fibril formation. Therefore, the bacterial growth of Staphylococcus hominis was tested by capped peptides of SEQ ID NO: 1 and 2. […] The lowest concentration at which no growth was observed is determined as the MIC. The experiment was performed in triplicates.

In the case of “LFKFFK (listed as Staphylococcus aureus) [fragment of PSMalpha3]”, the “growth inhibition of Micrococcus luteus” value [1] is reported as “inhibit the growth” and the “diameter of the growth inhibition of Micrococcus luteus” value ([1]; FIG. 2B) is reported as “dose-dependent effect”.
For “Ac-VAKLFKFFKDLLGKFL-NH2 (listed as Staphylococcus aureus) [peptide 8]”, the “anti-bacterial activity (MIC) against Staphylococcus epidermidis ATCC 12228” value (“anti-bacterial activity (MIC)” below) [2] was “fails to exhibit any antibacterial activity”.
With “Ac-LFKFFK-NH2 (listed as Staphylococcus aureus) [compound 1]” the “antibacterial effect against S. hominis (growth compared to control w/o peptide)” value [3] was “partially active”.
With “Ac-KLFKFFKDLLG-NH2 (listed as Staphylococcus aureus) [compound 6]” the “anti-bacterial activity (MIC)” value [2] was “better anti-bacterial activity”.
In the case of “Ac-KLFKFFKD-NH2 (listed as Staphylococcus aureus) [compound 3]”, the “antibacterial effect against S. hominis (growth compared to control w/o peptide)” value [3] is reported as “partially active”.
For MEFVAKLFKFFKDLLGKFLGNN [PSMalpha3], the antibacterial activity [4] is listed as “lacks antibacterial activity” and the antibacterial activity ([4]; listed as SEQ ID NO: 2) is listed as “lack an antibacterial activity”.
In the case of “Ac-KLFKFFK-NH2 (listed as Staphylococcus aureus) [compound 2]”, the MIC [5] is reported as 15 and the “antibacterial effect against S. hominis (growth compared to control w/o peptide)” value [3] is reported as “partially active”.
In the case of “KLFKFFK (listed as Staphylococcus aureus)”, the “growth inhibition of Micrococcus luteus” value [1] is reported as “inhibit the growth”, the “toxicity to Micrococcus Luteus compared with LFKFFK” value ([1]; FIG. 2B) is reported as “even more toxic” and the “diameter of the growth inhibition of Micrococcus luteus” value ([1]; FIG. 2B) is reported as “dose-dependent effect”.
In the case of “Ac-KLFKFFKDLL-NH2 (listed as Staphylococcus aureus) [compound 5]”, the “anti-bacterial activity (MIC)” value [2] is reported as “better anti-bacterial activity”.
